Source: the NIST ThermoML archive (doi:10.1016/j.jct.2018.12.019)
Numbers after ± are expanded uncertainties.

Assay: xn = mol fraction of the nth substance listed
Conditions: 98 kPa, Liquid; for speed of sound: Frequency=3 MHz, Single path-length method; for mass density: Vibrating tube method

SMILES: Cn1ccnc1 [1-methylimidazole] + O
- speed of sound (288.15 K, x1 = 0.0521): 1581.3 ± 1.1 m/s
- speed of sound (288.15 K, x1 = 0.1076): 1645.6 ± 1.1 m/s
- speed of sound (288.15 K, x1 = 0.2035): 1705.3 ± 1.1 m/s
- speed of sound (288.15 K, x1 = 0.3041): 1731.5 ± 1.1 m/s
- speed of sound (288.15 K, x1 = 0.4017): 1735.5 ± 1.1 m/s
- speed of sound (288.15 K, x1 = 0.5053): 1723.2 ± 1.2 m/s
- speed of sound (288.15 K, x1 = 0.6052): 1702.4 ± 1.2 m/s
- speed of sound (288.15 K, x1 = 0.7018): 1681.9 ± 1.3 m/s
- speed of sound (288.15 K, x1 = 0.8044): 1662.5 ± 1.3 m/s
- speed of sound (288.15 K, x1 = 0.9031): 1647.8 ± 1.4 m/s
- speed of sound (288.15 K, x1 = 0.9555): 1640.8 ± 1.4 m/s
- speed of sound (288.15 K, x1 = 1): 1634.1 ± 1.4 m/s
- mass density (288.15 K, x1 = 0.0521): 1011.8 ± 0.8 kg/m3
- mass density (288.15 K, x1 = 0.1076): 1022.54 ± 0.8 kg/m3
- mass density (288.15 K, x1 = 0.2035): 1035.77 ± 0.8 kg/m3
- mass density (288.15 K, x1 = 0.3041): 1044.45 ± 0.8 kg/m3
- mass density (288.15 K, x1 = 0.4017): 1048.95 ± 0.81 kg/m3
- mass density (288.15 K, x1 = 0.5053): 1050.2 ± 0.81 kg/m3
- mass density (288.15 K, x1 = 0.6052): 1048.91 ± 0.81 kg/m3
- mass density (288.15 K, x1 = 0.7018): 1046.64 ± 0.82 kg/m3
- mass density (288.15 K, x1 = 0.8044): 1043.96 ± 0.82 kg/m3
- mass density (288.15 K, x1 = 0.9031): 1041.64 ± 0.83 kg/m3
- mass density (288.15 K, x1 = 0.9555): 1040.49 ± 0.83 kg/m3
- mass density (288.15 K, x1 = 1): 1039.36 ± 0.83 kg/m3
- speed of sound (298.15 K, x1 = 0.0521): 1587 ± 1.1 m/s
- speed of sound (298.15 K, x1 = 0.1076): 1636.9 ± 1.1 m/s
- speed of sound (298.15 K, x1 = 0.2035): 1682.6 ± 1.1 m/s
- speed of sound (298.15 K, x1 = 0.3041): 1707.2 ± 1.1 m/s
- speed of sound (298.15 K, x1 = 0.4017): 1701.4 ± 1.1 m/s
- speed of sound (298.15 K, x1 = 0.5053): 1687.5 ± 1.2 m/s
- speed of sound (298.15 K, x1 = 0.6052): 1666.6 ± 1.2 m/s
- speed of sound (298.15 K, x1 = 0.7018): 1645.8 ± 1.3 m/s
- speed of sound (298.15 K, x1 = 0.8044): 1626 ± 1.3 m/s
- speed of sound (298.15 K, x1 = 0.9031): 1610.9 ± 1.4 m/s
- speed of sound (298.15 K, x1 = 0.9555): 1603.8 ± 1.4 m/s
- speed of sound (298.15 K, x1 = 1): 1596.5 ± 1.4 m/s
- mass density (298.15 K, x1 = 0.0521): 1007.6 ± 0.8 kg/m3
- mass density (298.15 K, x1 = 0.1076): 1016.8 ± 0.8 kg/m3
- mass density (298.15 K, x1 = 0.2035): 1028.46 ± 0.8 kg/m3
- mass density (298.15 K, x1 = 0.3041): 1036.28 ± 0.8 kg/m3
- mass density (298.15 K, x1 = 0.4017): 1040.34 ± 0.81 kg/m3
- mass density (298.15 K, x1 = 0.5053): 1041.41 ± 0.81 kg/m3
- mass density (298.15 K, x1 = 0.6052): 1040.12 ± 0.81 kg/m3
- mass density (298.15 K, x1 = 0.7018): 1037.87 ± 0.81 kg/m3
- mass density (298.15 K, x1 = 0.8044): 1035.17 ± 0.82 kg/m3
- mass density (298.15 K, x1 = 0.9031): 1032.83 ± 0.83 kg/m3
- mass density (298.15 K, x1 = 0.9555): 1031.66 ± 0.83 kg/m3
- mass density (298.15 K, x1 = 1): 1030.52 ± 0.83 kg/m3
- speed of sound (308.15 K, x1 = 0.0521): 1588.8 ± 1.1 m/s
- speed of sound (308.15 K, x1 = 0.1076): 1625.7 ± 1.1 m/s
- speed of sound (308.15 K, x1 = 0.2035): 1658.4 ± 1.1 m/s
- speed of sound (308.15 K, x1 = 0.3041): 1669.9 ± 1.1 m/s
- speed of sound (308.15 K, x1 = 0.4017): 1667.7 ± 1.1 m/s
- speed of sound (308.15 K, x1 = 0.5053): 1651.3 ± 1.2 m/s
- speed of sound (308.15 K, x1 = 0.6052): 1630.2 ± 1.2 m/s
- speed of sound (308.15 K, x1 = 0.7018): 1609.4 ± 1.3 m/s
- speed of sound (308.15 K, x1 = 0.8044): 1589.3 ± 1.3 m/s
- speed of sound (308.15 K, x1 = 0.9031): 1573.7 ± 1.4 m/s
- speed of sound (308.15 K, x1 = 0.9555): 1566.4 ± 1.4 m/s
- speed of sound (308.15 K, x1 = 1): 1559 ± 1.4 m/s
- mass density (308.15 K, x1 = 0.0521): 1002.76 ± 0.8 kg/m3
- mass density (308.15 K, x1 = 0.1076): 1010.63 ± 0.8 kg/m3
- mass density (308.15 K, x1 = 0.2035): 1020.89 ± 0.8 kg/m3
- mass density (308.15 K, x1 = 0.3041): 1027.92 ± 0.8 kg/m3
- mass density (308.15 K, x1 = 0.4017): 1031.57 ± 0.81 kg/m3
- mass density (308.15 K, x1 = 0.5053): 1032.48 ± 0.81 kg/m3
- mass density (308.15 K, x1 = 0.6052): 1031.21 ± 0.81 kg/m3
- mass density (308.15 K, x1 = 0.7018): 1028.99 ± 0.81 kg/m3
- mass density (308.15 K, x1 = 0.8044): 1026.32 ± 0.82 kg/m3
- mass density (308.15 K, x1 = 0.9031): 1023.98 ± 0.82 kg/m3
- mass density (308.15 K, x1 = 0.9555): 1022.8 ± 0.83 kg/m3
- mass density (308.15 K, x1 = 1): 1021.66 ± 0.83 kg/m3
- speed of sound (318.15 K, x1 = 0.0521): 1586.8 ± 1 m/s
- speed of sound (318.15 K, x1 = 0.1076): 1612.2 ± 1 m/s
- speed of sound (318.15 K, x1 = 0.2035): 1633.1 ± 1.1 m/s
- speed of sound (318.15 K, x1 = 0.3041): 1638.1 ± 1.1 m/s
- speed of sound (318.15 K, x1 = 0.4017): 1631.6 ± 1.1 m/s
- speed of sound (318.15 K, x1 = 0.5053): 1615 ± 1.2 m/s
- speed of sound (318.15 K, x1 = 0.6052): 1593.7 ± 1.2 m/s
- speed of sound (318.15 K, x1 = 0.7018): 1573 ± 1.3 m/s
- speed of sound (318.15 K, x1 = 0.8044): 1552.7 ± 1.3 m/s
- speed of sound (318.15 K, x1 = 0.9031): 1536.9 ± 1.4 m/s
- speed of sound (318.15 K, x1 = 0.9555): 1529.3 ± 1.4 m/s
- speed of sound (318.15 K, x1 = 1): 1521.8 ± 1.4 m/s
- mass density (318.15 K, x1 = 0.0521): 997.34 ± 0.8 kg/m3
- mass density (318.15 K, x1 = 0.1076): 1004.04 ± 0.8 kg/m3
- mass density (318.15 K, x1 = 0.2035): 1013.06 ± 0.8 kg/m3
- mass density (318.15 K, x1 = 0.3041): 1019.36 ± 0.8 kg/m3
- mass density (318.15 K, x1 = 0.4017): 1022.64 ± 0.8 kg/m3
- mass density (318.15 K, x1 = 0.5053): 1023.41 ± 0.81 kg/m3
- mass density (318.15 K, x1 = 0.6052): 1022.16 ± 0.81 kg/m3
- mass density (318.15 K, x1 = 0.7018): 1020.01 ± 0.81 kg/m3
- mass density (318.15 K, x1 = 0.8044): 1017.39 ± 0.82 kg/m3
- mass density (318.15 K, x1 = 0.9031): 1015.07 ± 0.82 kg/m3
- mass density (318.15 K, x1 = 0.9555): 1013.91 ± 0.83 kg/m3
- mass density (318.15 K, x1 = 1): 1012.76 ± 0.83 kg/m3
- speed of sound (328.15 K, x1 = 0.0521): 1581.4 ± 1 m/s
- speed of sound (328.15 K, x1 = 0.1076): 1596.3 ± 1 m/s
- speed of sound (328.15 K, x1 = 0.2035): 1606.6 ± 1.1 m/s
- speed of sound (328.15 K, x1 = 0.3041): 1605.7 ± 1.1 m/s
- speed of sound (328.15 K, x1 = 0.4017): 1596.3 ± 1.1 m/s
- speed of sound (328.15 K, x1 = 0.5053): 1578.4 ± 1.2 m/s
- speed of sound (328.15 K, x1 = 0.6052): 1557 ± 1.2 m/s
- speed of sound (328.15 K, x1 = 0.7018): 1536.5 ± 1.3 m/s
- speed of sound (328.15 K, x1 = 0.8044): 1516.3 ± 1.3 m/s
- speed of sound (328.15 K, x1 = 0.9031): 1500.3 ± 1.4 m/s
- speed of sound (328.15 K, x1 = 0.9555): 1492.6 ± 1.4 m/s
- speed of sound (328.15 K, x1 = 1): 1485 ± 1.4 m/s
- mass density (328.15 K, x1 = 0.0521): 991.41 ± 0.8 kg/m3
- mass density (328.15 K, x1 = 0.1076): 997.06 ± 0.8 kg/m3
- mass density (328.15 K, x1 = 0.2035): 1004.95 ± 0.8 kg/m3
- mass density (328.15 K, x1 = 0.3041): 1010.6 ± 0.8 kg/m3
- mass density (328.15 K, x1 = 0.4017): 1013.55 ± 0.8 kg/m3
- mass density (328.15 K, x1 = 0.5053): 1014.19 ± 0.81 kg/m3
- mass density (328.15 K, x1 = 0.6052): 1012.98 ± 0.81 kg/m3
- mass density (328.15 K, x1 = 0.7018): 1010.92 ± 0.81 kg/m3
- mass density (328.15 K, x1 = 0.8044): 1008.38 ± 0.82 kg/m3
- mass density (328.15 K, x1 = 0.9031): 1006.1 ± 0.82 kg/m3
- mass density (328.15 K, x1 = 0.9555): 1004.96 ± 0.82 kg/m3
- mass density (328.15 K, x1 = 1): 1003.83 ± 0.83 kg/m3
